According to ChEMBL document CHEMBL1921683, “Radiosynthesis of three [11C]ureido-substituted benzenesulfonamides as PET probes for carbonic anhydrase IX in tumors” (Bioorg Med Chem Lett, 2011):

Experiment: Chemical stability of the compound assessed as decomposition of the compound
Type: physicochemical

**Q.** With N#Cc1ccccc1N[11C](=O)Nc1ccc(S(N)(=O)=O)cc1 as the compound, how does the Stability read?
**A.** The Stability was “Unstable”.
